Measured values from PubChem BioAssay (NCI).
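Step 1: Grow cells in 96-well plates. Step 2: Expose to compound for 48 hours at 5 concentrations. Step 3: Interpolate endpoints linearly; if unreached, use highest concentration. GI50 = concentration required for 50% inhibition of growth. TGI is the concentration that stops growth completely.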

How the values were obtained:
Experiment in all cases: DTP human tumour cell line panel, 48 h
786-0 renal = system: 786-0 renal
A498 renal = system: A498 renal
A549 NSCLC = system: A549 NSCLC
ACHN renal = system: ACHN renal
BT-549 breast = system: BT-549 breast
CAKI-1 renal = system: CAKI-1 renal
CCRF-CEM leukemia = system: CCRF-CEM leukemia
COLO 205 colon = system: COLO 205 colon
DU-145 prostate = system: DU-145 prostate
EKVX NSCLC = system: EKVX NSCLC
HCC-2998 colon = system: HCC-2998 colon
HCT-116 colon = system: HCT-116 colon
HCT-15 colon = system: HCT-15 colon
HL-60(TB) leukemia = system: HL-60(TB) leukemia
HOP-62 NSCLC = system: HOP-62 NSCLC
HOP-92 NSCLC = system: HOP-92 NSCLC
HS 578T breast = system: HS 578T breast
HT29 colon = system: HT29 colon
IGROV1 ovarian = system: IGROV1 ovarian
K-562 leukemia = system: K-562 leukemia
KM12 colon = system: KM12 colon
M14 melanoma = system: M14 melanoma
MALME-3M melanoma = system: MALME-3M melanoma
MCF7 breast = system: MCF7 breast
MDA-MB-231 breast = system: MDA-MB-231 breast
MDA-MB-435 = system: MDA-MB-435
MOLT-4 leukemia = system: MOLT-4 leukemia
NCI-H226 lung = system: NCI-H226 lung
NCI-H460 lung = system: NCI-H460 lung
NCI-H522 lung = system: NCI-H522 lung
NCI/ADR-RES ovarian = system: NCI/ADR-RES ovarian
OVCAR-3 ovarian = system: OVCAR-3 ovarian
OVCAR-4 ovarian = system: OVCAR-4 ovarian
OVCAR-5 ovarian = system: OVCAR-5 ovarian
OVCAR-8 ovarian = system: OVCAR-8 ovarian
PC-3 prostate = system: PC-3 prostate
RPMI-8226 leukemia = system: RPMI-8226 leukemia
RXF 393 renal = system: RXF 393 renal
SF-268 CNS = system: SF-268 CNS
SF-295 CNS = system: SF-295 CNS
SF-539 CNS = system: SF-539 CNS
SK-MEL-2 melanoma = system: SK-MEL-2 melanoma
SK-MEL-28 melanoma = system: SK-MEL-28 melanoma
SK-MEL-5 melanoma = system: SK-MEL-5 melanoma
SK-OV-3 ovarian = system: SK-OV-3 ovarian
SN12C renal = system: SN12C renal
SNB-19 CNS = system: SNB-19 CNS
SNB-75 CNS = system: SNB-75 CNS
SR leukemia = system: SR leukemia
SW-620 colon = system: SW-620 colon
T-47D breast = system: T-47D breast
TK-10 renal = system: TK-10 renal
U251 CNS = system: U251 CNS
UACC-257 melanoma = system: UACC-257 melanoma
UACC-62 melanoma = system: UACC-62 melanoma
UO-31 renal = system: UO-31 renal

`COc1cccc(N2CCN(c3ncnc4c3[nH]c3ccc(F)cc34)C[C@@H]2C)c1` gave a GI50 (786-0 renal) of 2050 nM, a TGI (786-0 renal) of 5240 nM and a GI50 (A498 renal) of 2850 nM. For the same compound, the TGI (A498 renal) was 8030 nM, the GI50 (A549 NSCLC) was 1900 nM and the TGI (A549 NSCLC) was 5960 nM. It also gave a GI50 (ACHN renal) of 1490 nM, a TGI (ACHN renal) of 3720 nM and a GI50 (BT-549 breast) of 343 nM. It also gave a TGI (BT-549 breast) of 1430 nM, a GI50 (CAKI-1 renal) of 1670 nM and a TGI (CAKI-1 renal) of 5580 nM. For the same compound, the GI50 (CCRF-CEM leukemia) was 603 nM, the TGI (CCRF-CEM leukemia) was greater than 100000 nM and the GI50 (COLO 205 colon) was 1430 nM. It also gave a TGI (COLO 205 colon) of 2800 nM, a GI50 (DU-145 prostate) of 1380 nM and a TGI (DU-145 prostate) of 2670 nM. For the same compound, the GI50 (EKVX NSCLC) was 1880 nM, the TGI (EKVX NSCLC) was 6160 nM and the GI50 (HCC-2998 colon) was 2610 nM. The TGI (HCC-2998 colon) was 8320 nM, the GI50 (HCT-116 colon) was 1220 nM and the TGI (HCT-116 colon) was 3130 nM. The GI50 (HCT-15 colon) was 1750 nM, the TGI (HCT-15 colon) was 4420 nM and the GI50 (HL-60(TB) leukemia) was 1250 nM. For the same compound, the TGI (HL-60(TB) leukemia) was 5190 nM, the GI50 (HOP-62 NSCLC) was 1230 nM and the TGI (HOP-62 NSCLC) was 2760 nM. The GI50 (HOP-92 NSCLC) was 2280 nM, the TGI (HOP-92 NSCLC) was 6920 nM and the GI50 (HS 578T breast) was 1770 nM. For the same compound, the TGI (HS 578T breast) was 8520 nM, the GI50 (HT29 colon) was 2790 nM and the TGI (HT29 colon) was 9850 nM. For the same compound, the GI50 (IGROV1 ovarian) was 1710 nM, the TGI (IGROV1 ovarian) was 4670 nM and the GI50 (K-562 leukemia) was 1120 nM. The TGI (K-562 leukemia) was greater than 100000 nM, the GI50 (KM12 colon) was 1220 nM and the TGI (KM12 colon) was 2730 nM. For the same compound, the GI50 (M14 melanoma) was 1360 nM, the TGI (M14 melanoma) was 2730 nM and the GI50 (MALME-3M melanoma) was 1360 nM. The TGI (MALME-3M melanoma) was 3430 nM, the GI50 (MCF7 breast) was 1530 nM and the TGI (MCF7 breast) was 3450 nM. The GI50 (MDA-MB-231 breast) was 2270 nM, the TGI (MDA-MB-231 breast) was 6470 nM and the GI50 (MDA-MB-435) was 1590 nM. It also gave a TGI (MDA-MB-435) of 3180 nM, a GI50 (MOLT-4 leukemia) of 999 nM and a TGI (MOLT-4 leukemia) of 4650 nM. It also gave a GI50 (NCI-H226 lung) of 1320 nM, a TGI (NCI-H226 lung) of 3030 nM and a GI50 (NCI-H460 lung) of 2530 nM. For the same compound, the TGI (NCI-H460 lung) was 7340 nM, the GI50 (NCI-H522 lung) was 592 nM and the TGI (NCI-H522 lung) was 2020 nM. It also gave a GI50 (NCI/ADR-RES ovarian) of 1210 nM, a TGI (NCI/ADR-RES ovarian) of 4350 nM and a GI50 (OVCAR-3 ovarian) of 1500 nM. It also gave a TGI (OVCAR-3 ovarian) of 5590 nM, a GI50 (OVCAR-4 ovarian) of 852 nM and a TGI (OVCAR-4 ovarian) of 3860 nM. For the same compound, the GI50 (OVCAR-5 ovarian) was 2280 nM, the TGI (OVCAR-5 ovarian) was 6160 nM and the GI50 (OVCAR-8 ovarian) was 762 nM. The TGI (OVCAR-8 ovarian) was 2040 nM, the GI50 (PC-3 prostate) was 912 nM and the TGI (PC-3 prostate) was 3540 nM. For the same compound, the GI50 (RPMI-8226 leukemia) was 492 nM, the TGI (RPMI-8226 leukemia) was 3600 nM and the GI50 (RXF 393 renal) was 2240 nM. It also gave a TGI (RXF 393 renal) of 5450 nM, a GI50 (SF-268 CNS) of 1980 nM and a TGI (SF-268 CNS) of 6720 nM. It also gave a GI50 (SF-295 CNS) of 1610 nM, a TGI (SF-295 CNS) of 3350 nM and a GI50 (SF-539 CNS) of 2270 nM. It also gave a TGI (SF-539 CNS) of 5650 nM, a GI50 (SK-MEL-2 melanoma) of 1440 nM and a TGI (SK-MEL-2 melanoma) of 2820 nM. The GI50 (SK-MEL-28 melanoma) was 1470 nM, the TGI (SK-MEL-28 melanoma) was 2910 nM and the GI50 (SK-MEL-5 melanoma) was 1310 nM. For the same compound, the TGI (SK-MEL-5 melanoma) was 2580 nM, the GI50 (SK-OV-3 ovarian) was 2430 nM and the TGI (SK-OV-3 ovarian) was 7470 nM. The GI50 (SN12C renal) was 1170 nM, the TGI (SN12C renal) was 2460 nM and the GI50 (SNB-19 CNS) was 2550 nM. It also gave a TGI (SNB-19 CNS) of 6900 nM, a GI50 (SNB-75 CNS) of 1690 nM and a TGI (SNB-75 CNS) of 3060 nM. It also gave a GI50 (SR leukemia) of 2710 nM, a TGI (SR leukemia) greater than 100000 nM and a GI50 (SW-620 colon) of 2270 nM. The TGI (SW-620 colon) was 6070 nM, the GI50 (T-47D breast) was 310 nM and the TGI (T-47D breast) was 1640 nM. The GI50 (TK-10 renal) was 2140 nM, the TGI (TK-10 renal) was 4420 nM and the GI50 (U251 CNS) was 2280 nM. The TGI (U251 CNS) was 6080 nM, the GI50 (UACC-257 melanoma) was 1880 nM and the TGI (UACC-257 melanoma) was 3620 nM. It also gave a GI50 (UACC-62 melanoma) of 716 nM, a TGI (UACC-62 melanoma) of 2120 nM and a GI50 (UO-31 renal) of 467 nM. For the same compound, the TGI (UO-31 renal) was 1680 nM.

`O=C(CSc1nnc(-c2ccc(Cl)cc2)n1-c1ccccc1)Nc1ccc(Br)cc1` was tested, and the GI50 (BT-549 breast) was greater than 50000 nM, the TGI (BT-549 breast) was greater than 50000 nM and the GI50 (CCRF-CEM leukemia) was greater than 50000 nM. It also gave a TGI (CCRF-CEM leukemia) greater than 50000 nM, a GI50 (COLO 205 colon) greater than 50000 nM and a TGI (COLO 205 colon) greater than 50000 nM. The GI50 (DU-145 prostate) was greater than 50000 nM, the TGI (DU-145 prostate) was greater than 50000 nM and the GI50 (HCC-2998 colon) was greater than 50000 nM. It also gave a TGI (HCC-2998 colon) greater than 50000 nM, a GI50 (HCT-15 colon) greater than 50000 nM and a TGI (HCT-15 colon) greater than 50000 nM. The GI50 (HL-60(TB) leukemia) was greater than 50000 nM, the TGI (HL-60(TB) leukemia) was greater than 50000 nM and the GI50 (HOP-62 NSCLC) was 1870 nM. It also gave a TGI (HOP-62 NSCLC) greater than 50000 nM, a GI50 (HT29 colon) greater than 50000 nM and a TGI (HT29 colon) greater than 50000 nM. For the same compound, the GI50 (KM12 colon) was greater than 50000 nM, the TGI (KM12 colon) was greater than 50000 nM and the GI50 (MCF7 breast) was greater than 50000 nM. The TGI (MCF7 breast) was greater than 50000 nM, the GI50 (MDA-MB-435) was greater than 50000 nM and the TGI (MDA-MB-435) was greater than 50000 nM. For the same compound, the GI50 (MOLT-4 leukemia) was greater than 50000 nM, the TGI (MOLT-4 leukemia) was greater than 50000 nM and the GI50 (PC-3 prostate) was greater than 50000 nM. For the same compound, the TGI (PC-3 prostate) was greater than 50000 nM, the GI50 (SK-MEL-2 melanoma) was greater than 50000 nM and the TGI (SK-MEL-2 melanoma) was greater than 50000 nM. The GI50 (SNB-19 CNS) was 1890 nM, the TGI (SNB-19 CNS) was greater than 50000 nM and the GI50 (SW-620 colon) was greater than 50000 nM. For the same compound, the TGI (SW-620 colon) was greater than 50000 nM, the GI50 (UACC-257 melanoma) was greater than 50000 nM and the TGI (UACC-257 melanoma) was greater than 50000 nM.
